This is an account of results in US8466127B2, “Pegylated and fatty acid grafted chitosan oligosaccharide, synthesis method and application for drug delivery system” (Zhejiang University, priority 2008, dated 2013).

Values after ≈ are worked out from the molar mass of the structure shown. Where two headings read alike, the source gives them in different places.

In test [1] the test system is drug-resistant cell (MCF-7-adr). Description: MTT assay, adriamycin preparation, drug-resistant cells. The format is cell-based. The settings on record: Homo sapiens, NCI/ADR-RES, 48 h. As for the experimental part: (§1) Specifically, the breast carcinoma cell (MCF-7) and its drug-resistant cell (MCF-7-adr) used as the model cells were cultured in 96-well culture plate. 100 μL culture solution containing 5×10^3 MCF-7 or MCF-7-adr cells was added to each well and cultured for 24 h in 37° C., 5% CO2 incubator. […] A repeated well of each above group was set. The cells were cultured in normal DMEM medium for 48. After 20 μL of 5 mg/mL methylthiazoletetrazolium (MTT) solution was added to each well, the cells was re-cultured in 37° C., 5% CO2 incubator for 4 h, and then the supernatant was discarded. By adding 150 μL dimethyl sulfoxide to each well, a multi-functional microplate reader was used to measure the absorbance, and then the cell inhibition ratio was calculated according to the following formula: Cell inhibition ratio %=(absorbance of control group−absorbance of experimental group)/absorbance of control group×100%

Test [2] relates to uterine cervix cancer cell Hela. Kind of test: MTT assay, adriamycin preparation. In kind it is cell-based. The settings on record: Homo sapiens, 48 h. As for the experimental part:
Subsequently, the solution was transferred into a volumetric flask to set the total volume to 50 mL with distilled water, and then 1 mg/mL micelle solution was obtained. […] After stirred at room temperature for 3 h, the solution was dialyzed for 24 h with distilled water in dialysis bag with the molecular weight of 3,500. Then the dialysis concentrate solution was centrifuged at 5000 rpm for 5 min to remove the dialyzed hydrophobic anticancer drugs.
Subsequently, the evaluation of antitumor efficacy was conducted. Specifically, the uterine cervix cancer cell Hela used as the model was cultured in 96-well culture plate. 100 μL cell culture solution containing 5×10^3 Hela cells was added to each well and cultured for 24 h in 37° C., 5% CO2 incubator. […] A repeated well of each above group was set. The cells were cultured in normal DMEM medium for 48. After 20 μL of 5 mg/mL methylthiazoletetrazolium (MTT) solution was added to each well, the cells was re-cultured in 37° C., 5% CO2 incubator for 4 h, and then the supernatant was discarded. By adding 150 μL dimethyl sulfoxide to each well, a multi-functional microplate reader was used to measure the absorbance, and then the cell inhibition ratio was calculated according to the following formula: Cell inhibition ratio(%)=(absorbance of control group−absorbance of experimental group)/absorbance of control group×100%
(In general: Formazan colour is commonly taken as a measure of viable cells.)

Test [3] has as its system breast carcinoma cell (MCF-7). Description: MTT assay, adriamycin preparation, sensitive cells. In kind it is cell-based. The settings on record: Homo sapiens, MCF7, 48 h. How it is done:
as §1

Test [4] deals with QGY tumor. Kind of test: In vivo gene therapy, tumor inhibition. As to conditions: Nude mouse with QGY tumor, 2 mg/kg once, successive administration for 7 days. How it is done: PEDF was taken as the theoretical gene, and the drug-loaded graft micelle was prepared.
The test system of test [5] is hepatoma cell HepG2. Kind of test: MTT assay, mitomycin C preparations. The format is cell-based. The settings on record: HepG2, 48 h, mitomycin C solution or mitomycin C-loaded micelle of the named carrier. How it is done: Cell survival rate was determined by MTT assay. […] After incubation for 48 h, 60 μL of MTT solution was added to each well followed by incubation for 4 h. After that, the supernatant was discarded, and the cells were washed twice with PBS solution, prior to adding 400 μL DMSO to each well to terminate the reaction. After the culture plates were given a horizontal vibration for 10 min, the absorbance at the wavelength of 570 nm was measured in ELSA meter, and the cell survival rate was calculated according to the following formula: Cell survival rate(%)=A570(sample)/A570(control)×100% Wherein, A570 (sample) is the absorbance of cells adding with free drug or drug-loaded micelle, A570 (control) is the absorbance of control cells.

The subject of test [6] is human lung cancer cell A549. Kind of test: MTT assay, paclitaxel and hydroxycamptothecin preparations. The settings on record: A549, 48 h. The format is cell-based.
Experimental: Specifically, the human lung cancer cell A549 used as the model was cultured in 96-well culture plate. 100 μL cell culture solution containing 5×10^3 A549 cells was added to each well and cultured for 24 h in 37° C., 5% CO2 incubator. […] A repeated well of each above group was set. The cells were cultured in normal DMEM medium for 48. After 20 μL of 5 mg/mL methylthiazoletetrazolium (MTT) solution was added to each well, the cells was re-cultured in 37° C., 5% CO2 incubator for 4 h, and then the supernatant was discarded. By adding 150 μL dimethyl sulfoxide to each well, a multi-functional microplate reader was used to measure the absorbance, and then the cell inhibition ratio was calculated according to the following formula: Cell inhibition ratio %=(absorbance of control group−absorbance of experimental group)/absorbance of control group×100%
The test system of test [7] is drug-resistant cell SKOV-3/ST30. Kind of test: MTT assay, paclitaxel preparation, drug-resistant cells. In kind it is cell-based. The settings on record: Homo sapiens, SK-OV-3, 48 h. As for the experimental part:
as §1, with “ovarian cancer” for “breast carcinoma”, “SKOV-3” for “(MCF-7)”, “SKOV-3/ST30” for “(MCF-7-adr)”, “SKOV-3” for “MCF-7”, “SKOV-3/ST30” for “MCF-7-adr”

In test [8] the test system is ovarian cancer cell SKOV-3. Description: MTT assay, paclitaxel preparation, sensitive cells. The format is cell-based. The settings on record: Homo sapiens, SK-OV-3, 48 h. As for the experimental part:
as §1, with “ovarian cancer” for “breast carcinoma”, “SKOV-3” for “(MCF-7)”, “SKOV-3/ST30” for “(MCF-7-adr)”, “SKOV-3” for “MCF-7”, “SKOV-3/ST30” for “MCF-7-adr”

On to `COc1cccc2c1C(=O)c1c(O)c3c(c(O)c1C2=O)C[C@@](O)(C(=O)CO)C[C@@H]3O[C@H]1C[C@H](N)[C@H](O)[C@H](C)O1` [adriamycin solution, adriamycin], for which the IC50 (commonly the point on the concentration scale where inhibition reaches its midpoint) was 24.8 µg/mL (≈ 45.6 µM) in test [1], 1.7 µg/mL (≈ 3.13 µM) in test [2] and 0.48 µg/mL (≈ 0.883 µM) in test [3]. In test [4], the “tumor inhibition ratio (positive control)” value is reported as 78.85%.

In the case of `CO[C@@]12[C@H](COC(N)=O)C3=C(C(=O)C(C)=C(N)C3=O)N1C[C@@H]1N[C@@H]12` [Control example, mitomycin C], in test [5], the IC50 was 1.97 µg/mL (≈ 5.89 µM).

`CC[C@@]1(O)C(=O)OCc2c1cc1n(c2=O)Cc2cc3cc(O)ccc3nc2-1` [hydeoxycamptothecin injection, hydroxycamptothecin] had an IC50 in test [6] of 8.6 µg/mL (≈ 23.6 µM).

As for `CC(=O)O[C@H]1C(=O)[C@@]2(C)[C@H]([C@H](OC(=O)c3ccccc3)[C@]3(O)C[C@H](OC(=O)[C@H](O)[C@@H](NC(=O)c4ccccc4)c4ccccc4)C(C)=C1C3(C)C)[C@]1(OC(C)=O)CO[C@@H]1C[C@@H]2O` [taxol solution, paclitaxel], the IC50 in test [7] was 10.2 ± 0.23 µg/mL (≈ 12 µM); in test [6] (MTT, read-out: IC50), 3.2 µg/mL (≈ 3.75 µM); in test [8], 0.45 ± 0.05 µg/mL (≈ 0.527 µM).
